Reference: patent US5665760A, “Lyophilized thioxanthenone antitumor agents” (priority 1995, dated 1997)
Structures can show the parent of a compound that is named as a salt.

Key:
[1] = system: pancreatic ductal adenocarcinoma #03; assay: antitumor activity in mice against pancreatic ductal adenocarcinoma #03 (Panc 03); type: in vivo
Procedure: (§1) Representative examples of the invention were tested for antitumor activity in mice according to the following procedure:
(§2) The animals were pooled, implanted subcutaneously with 30 to 60 mg tumor fragments by 12-gauge trocar, and again pooled before unselective distribution to the various treatment and control groups. For early-stage treatment, chemotherapy was started within 1 to 5 days after tumor implantation while the number of cells was relatively small (10^7 to 10^8 cells). For advanced-stage treatment, chemotherapy was delayed until the tumor became relatively large (200 to 300 mg in size). A 300-mg tumor contains approximately 3×10^8 total cells. […] Tumors were measured with a caliper weekly (or twice weekly for the more rapidly growing tumors). Mice were sacrificed when their tumors reached 1500 mg (i.e., before they can cause the animal discomfort). Tumor weights were estimated from two-dimensional measurements.
(§3) The treatment and control groups were measured when the control group tumors reached approximately 700 to 1200 mg in size (Median of Group). The median tumor weight of each group was determined (including zeros). […] A T/C value <10% is considered to indicate highly significant antitumor activity.
(§4) The results are shown in Table I for pancreatic ductal adenocarcinoma #03 and in Table 2 for colon adenocarcinoma #38.

colon adenocarcinoma #38 = assay: antitumor activity in mice against colon adenocarcinoma #38; type: in vivo
Procedure: as §1, §2, §3, §4

[2] = Table 1, average body weight 25 g, total doses as in E1

SMILES	Weight Loss [1, 2]	Drug Deaths ([1]; Table 1, total doses as in E1)	T/C [1]	Weight Loss ([1]; mouse, in vivo)	Drug Deaths (colon adenocarcinoma #38; Table 2, i.v., total dose mg/kg by Example: 2:600, 5:960, 6:132, 7:840, 16(a):1000, 18(e):180)	T/C (colon adenocarcinoma #38; iv)	Weight Loss (colon adenocarcinoma #38; mouse, in vivo, iv)
CCOP(=O)(NCc1ccc(NCCN(CC)CC)c2c(=O)c3ccccc3sc12)OCC [Example 12]	3.2 g	0	–	–	–	–	–
CN(C)CCNc1ccc(CNS(C)(=O)=O)c2sc3ccccc3c(=O)c12.CS(=O)(=O)O [18(f), N-[[1-[[2-(Dimethylamino)ethyl]amino]-9-oxothioxanthen-4-yl]methyl]methanesulfonamide methanesulfonate]	5.2 g	2/5	–	–	–	–	–
CCN(CC)CCNc1ccc(CNS(C)(=O)=O)c2sc3ccc(O)cc3c(=O)c12 [Example 37, N-[[1-(2-Diethylamino)ethyl]amino]-7-hydroxy-9-oxothioxanthen-4-yl]methyl]methanesulfonamide·3/4 hydrate]	–	0	7%	0 g	–	–	–
CCN(CC)CCNc1ccc(CNC=O)c2sc3ccccc3c(=O)c12 [Example 2, N-[[1-[[2-(Diethylamino)ethyl]amino]-9-oxothioxanthen-4-yl]methyl]formamide]	2.0 g	0	0%	–	0	0%	2.8 g
CCN(CC)CCNc1ccc(CNS(=O)(=O)c2ccccc2)c2sc3ccccc3c(=O)c12 [Example 9, N-[[1-[[2-(Diethylamino)ethyl]amino]-9-oxothioxanthen-4-yl]methyl]phenylsulfonamide]	1.6 g	0	8%	–	–	–	–
CCN(CC)CCNc1ccc(CNS(=O)(=O)c2ccc(OC)cc2)c2sc3ccccc3c(=O)c12.CS(=O)(=O)O [Example 23, N-[[1-[[2-(Diethylamino)ethyl]amino]-9-oxothioxanthen-4-yl]methyl](p-methoxy)benzenesulfonamide methanesulfonate]	2.4 g	0	20%	–	–	–	–
CCN(CC)CCCNc1ccc(CNC)c2sc3ccccc3c(=O)c12 [17(f), 1-[[3-(Diethylamino)propyl]amino]-4-(methylaminomethyl)thioxanthen-9-one dihydrochloride 3/2 hydrate]	–	0	17%	2.0 g	–	–	–
CCNCc1ccc(NCCN(CC)CC)c2c(=O)c3ccccc3sc12 [Example 14, 1-[[2-(Diethylamino)ethyl]amino]-4-[(ethylamino)-methyl]thioxanthen-9-one]	1.2 g	0	0%	–	–	–	–
CNCc1ccc(NCCN(C)C)c2c(=O)c3ccccc3sc12 [20(b), 1-[[2-(Dimethylamino)ethyl]amino]-4-[(methylamino)-methyl]thioxanthen-9-onedihydrochloride-5/4 hydrate]	–	0	10%	0.4 g	–	–	–
CCN(CC)CCNc1ccc(CN(C)S(=O)(=O)CC)c2sc3ccccc3c(=O)c12.CS(=O)(=O)O [Example 22, N-[[1-[[2-(Diethylamino)ethyl]amino]-9-oxothioxanthen-4-yl]methyl]-N-methyl-ethanesulfonamide methanesulfonate]	3.2 g	0	0%	–	–	–	–
CNCc1ccc(NCCCN(C)C)c2c(=O)c3ccccc3sc12 [19(e), 1-[[3-(Dimethylamino)propyl]amino]-4-[(methylaminomethyl]thioxanthen-9-one dihydrochloride monohydrate]	–	0	4%	3.4 g	–	–	–
CCN(CC)CCNc1ccc(CNS(C)(=O)=O)c2sc3ccc(Br)cc3c(=O)c12 [Example 33, N-[[1-[[2-(Diethylamino)ethyl]amino]-7-bromo-9-oxothioxanthen-4-yl]methyl]methanesulfonamide]	2.0 g	0	28%	–	–	–	–
CCN(CC)CCNc1ccc(CN=CN(C)C)c2sc3ccccc3c(=O)c12 [Example 15, 1-[[2-(Diethylamino)]ethyl]amino]-4-(dimethylaminomethylene-aminomethyl)-thioxanthen-9-one trihydrochloride]	–	0	0%	2.0 g	–	–	–
CCN(CC)CCNc1ccc(CN(C)S(=O)(=O)c2ccccc2)c2sc3ccccc3c(=O)c12.CS(=O)(=O)O [Example 29, N-[[1-[[2-(Diethylamino)ethyl]amino]-9-oxothioxanthen-4-yl]methyl]-N-methyl-benzenesulfonamide methanesulfonate]	2.4 g	0	6%	–	–	–	–
CCN(CC)CCNc1ccc(CNS(=O)(=O)CC)c2sc3ccccc3c(=O)c12.CS(=O)(=O)O [Example 24, N-[[1-[[2-(Diethylamino)ethyl]amino]-9-oxothioxanthen-4-yl]methyl]ethanesulfonamide methanesulfonate]	2.3 g	0	0%	–	–	–	–
CCN(CC)CCNc1ccc(CNS(=O)(=O)c2ccccc2F)c2sc3ccccc3c(=O)c12 [Example 27, N-[[1-[[2-(Diethylamino)ethyl]amino]-9-oxothioxanthen-4-yl]methyl]-2-fluorobenzenesulfonamide]	+0.8 g	0	5%	–	–	–	–
CCN(CC)CCNc1ccc(CN(C)S(C)(=O)=O)c2sc3ccccc3c(=O)c12 [Example 8, N-[[1-[[2-(Diethylamino)ethyl)amino]-9-oxothioxanthen-yl]methyl]N-methylmethanesulfonamide]	–	0	0%	0.8 g	–	–	–
CN(C)CCCNc1ccc(CNS(C)(=O)=O)c2sc3ccccc3c(=O)c12 [21(c), N-[[1-[[3-(Dimethylamino)propyl]amino]-9-oxothioxanthen-4-yl]methyl]methanesulfonamide methanesulfonate·1/2 hydrate]	–	0	0%	4.5 g	–	–	–
CCN(CC)CCNc1ccc(C=Nc2ccccc2)c2sc3ccccc3c(=O)c12 [Example 1, 1-[[2-(Diethylamino)ethyl]amino]-4-(N-phenylformimidoyl)thioxanthen-9-one]	1.6 g	0	0%	–	–	–	–
CCCN(Cc1ccc(NCCN(CC)CC)c2c(=O)c3ccccc3sc12)S(C)(=O)=O [Example 28, N-[[1-[[2-(Diethylamino)ethyl]amino]-9-oxothioxanthen-4-yl]methyl]-N-propyl-methanesulfonamide]	2.8 g	0	0%	–	–	–	–
CCN(CC)CCNc1ccc(CN)c2sc3ccccc3c(=O)c12 [Example 4, 4-(Aminomethyl)-1-[[2-(diethylamino)ethyl]amino]-thioxanthen-9-one]	0.4 g	0	0%	–	–	–	–
CCN(CC)CCNc1ccc(CNS(=O)(=O)c2ccc(Cl)c(Cl)c2)c2sc3ccccc3c(=O)c12 [Example 26, N-[[1-[[2-(Diethylamino)ethyl]amino]-9-oxothioxanthen-4-yl]methyl]-3,4-dichlorobenzenesulfonamide methanesulfonate·1/2 hydrate]	–	0	13%	2.2 g	–	–	–
